# Measured values published in patent US9931347B2, “Pharmaceutical compound” (IOmet Pharma Ltd., priority 2013, dated 2018).
# Legend:
# [1] = target: T1, IDO (SKOV3 human ovarian adenocarcinoma cells, IFN-γ induced) (Homo sapiens, UniProt P14902); test: SKOV3 Kynurenine cell based assay; conditions: IDO induced by 500 ng/ml IFN-γ, 500 μM L-tryptophan, 48 hours
# T1 construct: IDO expression was induced in the SKOV3 cells by the addition of 500 ng/ml IFN-γ; endogenous in cells; host or cells: SKOV3 human ovarian adenocarcinoma cells, induced with IFN-γ
# T1 sequence (P14902 whole entry): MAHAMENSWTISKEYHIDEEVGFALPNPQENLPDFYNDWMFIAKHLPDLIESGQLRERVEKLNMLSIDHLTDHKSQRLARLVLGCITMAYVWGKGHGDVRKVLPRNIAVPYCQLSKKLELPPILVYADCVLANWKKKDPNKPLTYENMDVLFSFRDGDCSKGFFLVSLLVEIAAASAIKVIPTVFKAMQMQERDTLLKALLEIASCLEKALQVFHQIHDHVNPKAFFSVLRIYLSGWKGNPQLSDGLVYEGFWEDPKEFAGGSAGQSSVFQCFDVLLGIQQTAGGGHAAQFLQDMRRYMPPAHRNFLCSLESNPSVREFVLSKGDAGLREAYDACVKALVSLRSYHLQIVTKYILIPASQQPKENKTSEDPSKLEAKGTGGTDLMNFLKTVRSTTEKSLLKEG
# In short: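 IFN-γ (500 ng/ml) induced IDO in SKOV3 cells, seeded at 40,000/well in phenol red-free RPMI with 10% FCS, 2 mM L-glutamine and 500 μM L-tryptophan. Cells were incubated with or without compound at 37° C for 48 h. Supernatant kynurenine was detected with Ehrlich's reagent.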
# Recombinant human IDO = Recombinant human IDO (Homo sapiens, UniProt P14902); test: hIDO biochemical coupled assay; conditions: 45 μM L-tryptophan, coupled with kynurenine formamidase
# Sequence of Recombinant human IDO (P14902 whole entry): as above
# Experimental: (§1) Exemplary compounds of the invention were prepared, and tested to determine their effect as TDO and/or IDO inhibitors. Two different assays were employed: 1. a cell-based assay for detecting the effect of test compounds on kynurenine production in two different cancer cell types. This assay utilised cancer cells which expressed either TDO or IDO and as such was used as a means of testing compound activity at these two enzymes in a cell-based context. 2. a TDO and IDO biochemical coupled assay which utilised recombinantly produced and purified TDO and IDO enzymes in combination with the enzyme formamidase. This coupled enzyme system allowed conversion of N-formylkynurenine produced by TDO or IDO activity to kynurenine which was then quantified by fluorescence following addition of Erhlich's Reagent The protocols for these are set out below.
# Recombinant human IDO or TDO was incubated in 50 mM KPO4 (pH 7.0), 0.5 mM EGTA, 0.5 mM EDTA, 0.05% Triton™ X100, 20 mM ascorbate, 10 μM methylene blue, 500 U/ml catalase, 50 μg/ml KynB (kynurenine formamidase).
# [2] = target: T2, TDO (A172 human glioblastoma cells) (Homo sapiens, UniProt P48775); test: A172 Kynurenine cell based assay; conditions: 500 μM L-tryptophan, 48 hours, kynurenine by Erhlich's reagent
# T2 construct: This assay utilised cancer cells which expressed either TDO or IDO; endogenous in cells; host or cells: A172 human glioblastoma cells
# T2 sequence (P48775 whole entry): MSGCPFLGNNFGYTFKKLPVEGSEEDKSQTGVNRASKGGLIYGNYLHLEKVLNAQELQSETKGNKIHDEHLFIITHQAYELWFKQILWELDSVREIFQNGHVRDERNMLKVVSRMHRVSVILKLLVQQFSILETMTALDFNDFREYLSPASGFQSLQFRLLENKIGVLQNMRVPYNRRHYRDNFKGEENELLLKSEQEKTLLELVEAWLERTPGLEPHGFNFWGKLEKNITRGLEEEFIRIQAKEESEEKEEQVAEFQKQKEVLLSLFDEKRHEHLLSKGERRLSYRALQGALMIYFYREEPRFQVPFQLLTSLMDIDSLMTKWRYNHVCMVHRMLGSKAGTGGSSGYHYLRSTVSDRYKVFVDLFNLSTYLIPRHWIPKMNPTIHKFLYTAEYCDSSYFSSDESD
# In short: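 A172 glioblastoma cells (30,000/well) cultured at 37° C. in phenol red-free RPMI with 10% FCS, 2 mM L-glutamine and 500 μM L-tryptophan, with or without test compound. After 48 hours, kynurenine in the supernatant was read with Erhlich's reagent (5 min) as absorbance at 490 nm.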
# Recombinant human TDO = Recombinant human TDO (Homo sapiens, UniProt P48775); test: hTDO biochemical coupled assay; conditions: 330 μM L-tryptophan, coupled with kynurenine formamidase
# Sequence of Recombinant human TDO (P48775 whole entry): as above
# Experimental: as §1
# Recombinant human IDO or TDO was incubated in 50 mM KPO4 (pH 7.0), 0.5 mM EGTA, 0.5 mM EDTA, 0.05% Triton™ X100, 20 mM ascorbate, 10 μM methylene blue, 500 U/ml catalase, 50 μg/ml KynB (kynurenine formamidase). TDO assays were carried out in the presence of 330 μM L-tryptophan, while IDO assays had the addition of 45 μM L-tryptophan. After incubation for 17 minutes at room temperature the reactions were stopped by the addition of Erhlich's reagent and incubated at room temperature for 5 minutes before the fluorescence was read (Ex475, Em530).
Structure (SMILES),SKOV3 Kynurenine cell based assay pIC50 [1],hIDO biocehmical assay pIC50 (Recombinant human IDO),A172 Kynurenine cell based assay pIC50 [2],hTDO biochemical assay pIC50 (Recombinant human TDO)
COCCS(=O)(=O)N1CCC(c2c[nH]c3ccccc23)CC1 [Compound 74],+− (+− = pIC50 <4.00),+− (+− = pIC50 <4.00),++ (++ = pIC50 5.00-5.99),+ (+ = pIC50 4.00-4.99)
Cn1cnc(S(=O)(=O)N2CCC(c3c[nH]c4ccccc34)CC2)c1 [Compound 4],+− (+− = pIC50 <4.00),+− (+− = pIC50 <4.00),+ (+ = pIC50 4.00-4.99),+ (+ = pIC50 4.00-4.99)
CC(=O)N1CC=C(c2c[nH]c3ccc(F)cc23)CC1 [Compound 86],+ (+ = pIC50 4.00-4.99),+− (+− = pIC50 <4.00),++ (++ = pIC50 5.00-5.99),+++ (+++ = pIC50 ≥6.00)
O=S(=O)(C1CC1)N1CCC(c2c[nH]c3ccccc23)CC1 [Compound 75],+− (+− = pIC50 <4.00),+− (+− = pIC50 <4.00),++ (++ = pIC50 5.00-5.99),+ (+ = pIC50 4.00-4.99)
CCCS(=O)(=O)N1CCC(c2c[nH]c3ccccc23)CC1 [Compound 69],+− (+− = pIC50 <4.00),+− (+− = pIC50 <4.00),++ (++ = pIC50 5.00-5.99),+ (+ = pIC50 4.00-4.99)
CC(=O)N1CC=C(c2c[nH]c3ncccc23)CC1 [Compound 105],+ (+ = pIC50 4.00-4.99),+− (+− = pIC50 <4.00),+− (+− = pIC50 <4.00),+ (+ = pIC50 4.00-4.99)
Cc1ccc2[nH]cc(C3CCN(S(=O)(=O)c4ccc(C(C)(C)C)cc4)CC3)c2c1 [Compound 58],+ (+ = pIC50 4.00-4.99),+− (+− = pIC50 <4.00),+ (+ = pIC50 4.00-4.99),+− (+− = pIC50 <4.00)
Cc1cccc2c(C3CCN(S(=O)(=O)c4ccc5c(c4)CN(C(=O)C(F)(F)F)CC5)CC3)c[nH]c12 [Compound 37],+ (+ = pIC50 4.00-4.99),+− (+− = pIC50 <4.00),+− (+− = pIC50 <4.00),+− (+− = pIC50 <4.00)
O=S(=O)(c1cccs1)N1CC=C(c2c[nH]c3ncccc23)CC1 [Compound 13],++ (++ = pIC50 5.00-5.99),+− (+− = pIC50 <4.00),+− (+− = pIC50 <4.00),+− (+− = pIC50 <4.00)
Cc1cccc2c(C3CCN(C(=O)c4cc(Cl)cnc4Cl)CC3)c[nH]c12 [Compound 28],+ (+ = pIC50 4.00-4.99),+− (+− = pIC50 <4.00),+− (+− = pIC50 <4.00),+− (+− = pIC50 <4.00)
CC(=O)N1CCC(C2CNc3cc(F)ccc32)CC1 (centres unmarked) [Compound 179],+− (+− = pIC50 <4.00),+− (+− = pIC50 <4.00),+ (+ = pIC50 4.00-4.99),+− (+− = pIC50 <4.00)
CS(=O)(=O)N1CC=C(c2c[nH]c3ccc(F)cc23)CC1 [Compound 90],+ (+ = pIC50 4.00-4.99),+− (+− = pIC50 <4.00),++ (++ = pIC50 5.00-5.99),++ (++ = pIC50 5.00-5.99)
O=C(c1cccs1)N1CCC(c2c[nH]c3ccccc23)CC1 [Compound 11],+ (+ = pIC50 4.00-4.99),+− (+− = pIC50 <4.00),+ (+ = pIC50 4.00-4.99),+− (+− = pIC50 <4.00)
O=C(Cc1cccs1)N1CCC(c2c[nH]c3ccccc23)CC1 [Compound 19],+ (+ = pIC50 4.00-4.99),+− (+− = pIC50 <4.00),+− (+− = pIC50 <4.00),+− (+− = pIC50 <4.00)
O=C(c1ccccc1)N1CCC(c2c[nH]c3ccccc23)CC1 [Compound 82],+− (+− = pIC50 <4.00),+− (+− = pIC50 <4.00),+ (+ = pIC50 4.00-4.99),+− (+− = pIC50 <4.00)
CCOC(=O)N1CCC(c2c[nH]c3ccccc23)CC1 [Compound 66],+ (+ = pIC50 4.00-4.99),+− (+− = pIC50 <4.00),+ (+ = pIC50 4.00-4.99),+− (+− = pIC50 <4.00)
Cc1ccc2[nH]cc(C3CCN(S(=O)(=O)c4ccccc4OC(F)(F)F)CC3)c2c1 [Compound 36],++ (++ = pIC50 5.00-5.99),+− (+− = pIC50 <4.00),+ (+ = pIC50 4.00-4.99),+− (+− = pIC50 <4.00)
Cc1cc(C(=O)N2CCC(c3c(C)[nH]c4ccccc34)CC2)no1 [Compound 8],+ (+ = pIC50 4.00-4.99),+− (+− = pIC50 <4.00),+− (+− = pIC50 <4.00),+− (+− = pIC50 <4.00)
COC(=O)c1ccccc1S(=O)(=O)N1CCC(c2c[nH]c3ccc(C#N)cc23)CC1 [Compound 56],++ (++ = pIC50 5.00-5.99),+− (+− = pIC50 <4.00),+− (+− = pIC50 <4.00),+− (+− = pIC50 <4.00)
O=C(CO)N1CCC(c2c[nH]c3ccccc23)CC1 [Compound 67],+− (+− = pIC50 <4.00),+− (+− = pIC50 <4.00),+ (+ = pIC50 4.00-4.99),+− (+− = pIC50 <4.00)
CC(=O)N1CCC(c2c[nH]c3ccccc23)CC1 [Compound 1],+ (+ = pIC50 4.00-4.99),+− (+− = pIC50 <4.00),++ (++ = pIC50 5.00-5.99),+− (+− = pIC50 <4.00)
O=C(C1CC1)N1CCC(c2c[nH]c3ccccc23)CC1 [Compound 71],+− (+− = pIC50 <4.00),+− (+− = pIC50 <4.00),+ (+ = pIC50 4.00-4.99),+− (+− = pIC50 <4.00)
CC(=O)N1CC=C(c2c(C)[nH]c3ccccc23)CC1 [Compound 104],+ (+ = pIC50 4.00-4.99),+− (+− = pIC50 <4.00),+− (+− = pIC50 <4.00),+ (+ = pIC50 4.00-4.99)
Cc1cccc2c(C3CCN(C(=O)c4ccc(F)c(C(F)(F)F)c4)CC3)c[nH]c12 [Compound 54],+ (+ = pIC50 4.00-4.99),+− (+− = pIC50 <4.00),+ (+ = pIC50 4.00-4.99),+− (+− = pIC50 <4.00)
CC(=O)N1CCC(c2c[nH]c3ncccc23)CC1 [Compound 99],+ (+ = pIC50 4.00-4.99),+− (+− = pIC50 <4.00),+− (+− = pIC50 <4.00),+− (+− = pIC50 <4.00)
CC(=O)N1CC=C(c2c[nH]c3cccc(F)c23)CC1 [Compound 77],+ (+ = pIC50 4.00-4.99),+− (+− = pIC50 <4.00),+ (+ = pIC50 4.00-4.99),+ (+ = pIC50 4.00-4.99)
